Source: EP1143955B1, “A COMBINATION OF FBPase INHIBITORS AND INSULIN SENSITIZERS FOR THE TREATMENT OF DIABETES” (priority 1998, dated 2000)
pIC50: −log10 of the molar value.

Legend:
[1] = tested on: Rat Hepatocytes; experiment: Inhibition of Gluconeogenesis in Rat Hepatocytes (Example C); assay type: cell-based; settings: glucose production from 10 mM lactate, 1 mM pyruvate, 1 hour, hepatocytes from fed Sprague-Dawley rats
Description: Hepatocytes (75 mg wet weight/ml) were incubated in 1 ml Krebs-bicarbonate buffer containing 10 mM Lactate, 1 mM pyruvate, 1 mg/ml BSA, and test compound concentrations from 0 to 500 µM. […] After 1 hour, an aliquot (0.25 ml) was removed, transferred to an Eppendorf tube and centrifuged. 50 µl of supernatant was then assayed for glucose content using a Sigma Glucose Oxidase kit as per the manufacturer's instructions.

[2] = target: rat liver FBPase; experiment: Inhibition of rat liver FBPase (Example B); assay type: biochemical; settings: assayed as for human liver FBPase
Description: (§1) Mouse liver FBPase was obtained by homogenizing freshly isolated mouse liver in 100 mM Tris-HCl buffer, pH 7.4, containing 1 mM EGTA, and 10% glycerol. […] This fraction was redissolved in the homogenization buffer and desalted on a PD-10 gel filtration column (Biorad) eluted with same. This partially purified fraction was used for enzyme assays.

[3] = Oral bioavailability determination by the urinary excretion method in the rat (Example G); assay type: in vivo, Sprague Dawley rats
Description: The oral bioavailability of prodrugs and parent compounds was determined by the urinary excretion method in the rat. Prodrugs were dissolved in 10% ethanol/90% polyethylene glycol (mw 400) and administered by oral gavage at doses of 10 to 40 mg/kg parent compound equivalents to 6-hour fasted, Sprague Dawley rats (220-240 g). Parent compounds were typically dissolved in deionized water, neutralized with sodium hydroxide, and then administered orally at 10-40 mg/kg or intravenously at ~10 mg/kg. The rats were subsequently placed in metabolic cages and urine was collected for 24 hours. The quantity of parent compound excreted into urine was determined by HPLC analysis as described in Example F. Analysis was performed as described in Example F. For prodrugs, the percentage oral bioavailability was estimated by comparison of the recovery in urine of the parent compound generated from the prodrug administered orally, to that recovered in urine following intravenous administration of the corresponding parent compound. For parent compounds, the percentage oral bioavailability was estimated by comparison of the recovery in urine of the parent compound when administered orally to that recovered when administered intravenously.

[4] = tested on: Normal Fasted Rats; experiment: Glucose lowering after intraperitoneal administration to normal fasted rats (Example F); assay type: in vivo; settings: 18-hour fasted Sprague-Dawley rats, one hour post injection
Description: Sprague-Dawley rats (250-300 g) were fasted for 18 hours and then dosed intraperitoneally either with saline or FBPase inhibitor. The vehicle used for drug administration was 10 mM bicarbonate. One hour post injection, rats were anesthetized with halothane, and liver and blood samples were taken and processed as described in Example E. The neutralized liver extracts were analyzed for FBPase inhibitor content by HPLC. A reverse phase YMC ODS AQ column ([…]) was used and eluted with a gradient from 10 mM sodium phosphate pH 5.5 to 75% acetonitrile. Absorbance was monitored at 310 nm. Glucose was measured in the blood sample as described in Example C. Plasma was prepared by centrifugation and extracted by addition of methanol to 60% (v/v). The methanolic extract was clarified by centrifugation and filtration and then analyzed by HPLC as described above.

[5] = tested on: Rat Hepatocytes; experiment: Inhibition of glucose production and elevation of fructose-1,6-bisphosphate levels in rat hepatocytes (Example D); assay type: cell-based; settings: isolated rat hepatocytes
Description: Hepatocytes were prepared from fed Sprague-Dawley rats (250-300 g) according to the procedure of Berry and Friend (Berry, M.N., Friend, D.S., 1969, J. Cell. Biol. 43, 506-520) as modified by Groen (Groen, A.K., Sips, H.J., Vervoom, R.C., Tager, J.M. , 1982, Eur. J. Biochem. 122, 87-93). Hepatocytes (75 mg wet weight/ml) were incubated in 1 ml Krebs-bicarbonate buffer containing 10 mM Lactate, 1 mM pyruvate, 1 mg/ml BSA, and test compound concentrations from 0 to 500 µM. Incubations were carried out in a 95% oxygen, 5% carbon dioxide atmosphere in closed, 50-ml Falcon tubes submerged in a rapidly shaking water bath (37°C). After 1 hour, an aliquot (0.25 ml) was removed, transferred to an Eppendorf tube and centrifuged. 50 µl of supernatant was then assayed for glucose content using a Sigma Glucose Oxidase kit as per the manufacturer's instructions.
Rat hepatocytes were isolated and incubated as described in Example C. Cell extracts, were analyzed for glucose content as described in Example C, and also for fructose 1,6-bisphosphate. Fructose 1,6-bisphosphate was assayed spectrophotometrically by coupling its enzymatic conversion to glycerol 3-phosphate to the oxidation of NADH, which was monitored at 340 nm. […] After a 30 minute preincubation at 37°C, 1 unit/ml of aldolase was added and the change in absorbance measured until a stable value was obtained. […]

[6] = tested on: ZDF rat; experiment: Combination treatment in the ZDF rat - plasma insulin (Example P); assay type: in vivo, Zucker Diabetic Fatty (ZDF) rat; settings: Troglitazone-Compound G study, final day of treatment
Description: Plasma was prepared by centrifugation and insulin levels then measured by means of an enzyme-linked immunoassay kit according to the instructions of the manufacturer (Amersham Life Sciences). […] Results are considered significant with p<0.05.

[7] = tested on: db/db mouse; experiment: Combination treatment with Troglitazone and Compound A in the db/db mouse - blood glucose (Example T); assay type: in vivo, C57BL/KsJ-db/db mice; settings: for Blood glucose, mg/dl (8 am day 4): fed
Source text: Male C57BL/KsJ-db/db mice were obtained from Jackson Laboratories (Bar Harbor, Maine) at 9 weeks of age. […] Group 1 (controls) received powdered Purina 5008 chow alone. […] This dose is reported to elicit the maximal hypoglycemic effect of Troglitazone in this model (Fujiwara et al 1995). […] Results are considered significant with p<0.05.

[8] = tested on: db/db mouse; experiment: Combination treatment with Troglitazone and Compound G in the db/db mouse - blood glucose (Example S); assay type: in vivo; settings: db/db mice, Troglitazone 0.1%, mean ± SEM
Source text: Treatment was for 18 days. […] Results are considered significant with p<0.05.

[9] = tested on: ZDF rat; experiment: Combination treatment with Troglitazone and Compound G or Compound J in the ZDF rat - blood glucose (Example N); assay type: in vivo, Zucker Diabetic Fatty (ZDF) rat; settings: for Blood Glucose, mg/dl Day 0: Day 0 (baseline); for Blood Glucose, mg/dl Day 21: Compound J 0.4% food admixture for 21 days
Description: (§2) At 11 weeks of age, animals with blood glucose >500 mg/dl were selected and divided into 4 treatment groups (n=8/group). […] Blood glucose levels were measured in tail vein samples by means of a HemoCue glucose analyzer (HemoCue Inc., Mission Viejo, CA). Values are expressed as the mean plus or minus the standard error of the mean. Differences between groups were evaluated by analysis of variance with the Tukey-Kramer post hoc test.

[10] = tested on: type 2 diabetics; settings: most common side-effect; cited from earlier work
[11] = tested on: ZDF rat; experiment: Combination treatment in the ZDF rat - plasma triglycerides (Example O); assay type: in vivo, Zucker Diabetic Fatty (ZDF) rat; settings: for Plasma Triglycerides, mg/dl (Mean ± SEM): final day of treatment
Source text: Results are considered significant with p<0.05.

[12] = tested on: ZDF rat; experiment: Combination treatment with Rosiglitazone and Compound G in the ZDF rat - blood glucose (Example R); assay type: in vivo, Zucker Diabetic Fatty (ZDF) rat; settings: Rosiglitazone 0.0045%, Compound G 0.2% food admixture, 25 days
Description: as §2

[13] = tested on: ZDF rat; experiment: Combination treatment in the ZDF rat - blood lactate (Example Q); parameters: species or system Zucker Diabetic Fatty (ZDF) rat; settings: in vivo
Source text: Blood samples were taken from the tail vein on days 0, 3, 7, 10 and 14 of the Troglitazone-Compound G combination study and on days 0,7,14, and 21 of the Troglitazone-Compound J combination study (study protocols are described in Example N).

[14] = target: human liver FBPase; experiment: Inhibition of Human Liver FBPase (Example A); assay type: biochemical; settings: […] fructose 1,6-bisphosphate, 37°C
[15] = target: Mouse liver FBPase; experiment: Inhibition of mouse liver FBPase (Example B); assay type: biochemical; settings: partially purified mouse liver FBPase, assayed as for human liver FBPase
Description: as §1

[16] = Troglitazone-Compound J study, Troglitazone 0.2%, Compound J 0.4% food admixture, mean ± SEM
[17] = Troglitazone-Compound J study, Troglitazone 0.2%, mean ± SEM

CC(C)Cc1sc(N)nc1-c1ccc(P(=O)(N[C@@H](C)C(=O)OCc2ccccc2)N[C@@H](C)C(=O)OCc2ccccc2)o1 [Compound K, 2-Amino-5-isobutyl-4-[2-(5-N,N-bis(L-alanine acid dibenzyl ester)phosphonoamido)furanyl]thiazole]
pIC50 [1]: 5.68

CSc1nc(-c2ccc(P(=O)(O)O)o2)c(CC(C)C)s1 [Compound H, 2-Methylthio-5-isobutyl-4-[2-(5-phosphono)furanyl]thiazole]
pIC50 [2]: 6.76
Oral bioavailability, % ([3]; estimated, urinary excretion of parent compound over 24 hours, oral 10-40 mg/kg vs intravenous ~10 mg/kg, 6-hour fasted rats): 4%

CCc1cc(F)c(N)c2nc(-c3ccc(P(=O)(O)O)o3)n(CC(C)C)c12 [Compound E]
Glucose Lowering, % [4]: 44.4%
intracellular fructose 1,6-bisphosphate [5]: dose-dependent elevation of intracellular fructose 1,6-bisphosphate

Cc1c(C)c2c(c(C)c1O)CCC(C)(COc1ccc(CC3SC(=O)NC3=O)cc1)O2 (centres unmarked) [Troglitazone]
pIC50 ([1]; Rattus norvegicus, Hepatocyte): < 4.00
Plasma Insulin, ng/ml (Mean ± SEM) [6]: 3.61 ± 1.03 ng/mL
Blood glucose, mg/dl 2 pm, day 7 ([7]; 6 hours post second dose of Compound A 250 mg/kg (Group 3) or vehicle (Group 2), food withheld): 195 ± 12.1 mg/dL
Blood glucose, mg/dl (8 am day 4) ([7]; Group 2, Troglitazone 0.1% admixture): 240 ± 21.3 mg/dL
Blood glucose, mg/dl (8 am day 4) ([7]; Group 3, Troglitazone 0.1% admixture, before the first dose of Compound A): 237.5 ± 18.5 mg/dL
Blood glucose, mg/dl (5 pm day 4) ([7]; nine hours after single oral dose of Compound A 250 mg/kg (Group 3) or vehicle (Group 2), Troglitazone 0.1% admixture): 232.5 ± 17 mg/dL
Blood Glucose, mg/dl Day 0 ([8]; Day 0 (baseline), Compound G 0.4% food admixture): 710 ± 44 mg/dL
Blood Glucose, mg/dl Day 18 ([8]; Compound G 0.4% food admixture for 18 days): 509 ± 70 mg/dL
Blood Glucose, mg/dl Day 0 ([9]; Troglitazone-Compound G study, drugs as 0.2% food admixtures, mean ± SEM, n=8/group): 655 ± 33 mg/dL
Blood Glucose, mg/dl Day 14 ([9]; Troglitazone-Compound G study, drugs as 0.2% food admixtures for 15 days, mean ± SEM): 431 ± 73 mg/dL
Blood Glucose, mg/dl Day 0 [9, 16]: 669 ± 23 mg/dL
Blood Glucose, mg/dl Day 21 [9, 17]: 514 ± 135 mg/dL
elevation of liver enzymes (hepatotoxicity) [10]: 1 % of patients
Plasma Triglycerides, mg/dl (Mean ± SEM) ([11]; Troglitazone-Compound G study): 131 ± 16 mg/dL
Plasma Triglycerides, mg/dl (Mean ± SEM) ([11]; Troglitazone-Compound J study): 249 ± 60 mg/dL

CN(CCOc1ccc(CC2SC(=O)NC2=O)cc1)c1ccccn1 (centres unmarked) [Rosiglitazone]
Responders (rats whose blood glucose levels were lower on day 25 than on day 0) [12]: 6/10

CCOC(=O)[C@H](C)NP(=O)(N[C@@H](C)C(=O)OCC)c1ccc(-c2nc(N)sc2CC(C)C)o1 [Compound J, 2-Amino-5-isobutyl-4-{2-[5-(N,N'-bis((S)-1-ethoxycarbonyl)ethyl)phosphonamido]furanyl}thiazole]
blood lactate typically elevated over baseline [13]: ~ 2 fold
maximal blood lactate elevations over baseline [13]: 3 fold
Blood Glucose, mg/dl Day 0 [9, 16]: 674 ± 20 mg/dL
Blood Glucose, mg/dl Day 21 [9, 17]: 452 ± 40 mg/dL
blood glucose lowering in pilot studies (dose selection) ([9]; ZDF rat, food admixture, pilot studies): a trend (not significant) towards more pronounced blood glucose lowering at 0.4% than at 0.2%
Plasma Triglycerides, mg/dl (Mean ± SEM) ([11]; Troglitazone-Compound J study): 759 ± 76 mg/dL
elevation of plasma triglycerides ([11]; monotherapy vs control, ZDF rat): ~2 fold
Oral bioavailability, % ([3]; rat, in vivo, po, 24 h): 21%

Nc1ncnc2c1ncn2[C@@H]1O[C@H](COP(=O)(O)O)[C@@H](O)[C@H]1O [AMP]
pIC50 [14]: 5.89
pIC50 [2]: 4.60
pIC50 [15]: 4.82
